{
  "source": "patent US7998940B2",
  "about": "“Aptamers to von Willebrand factor and their use as thrombotic disease therapeutics” (Archemix Corp., priority 2004, dated 2011)",
  "molecules": {"B1": {"name": "AMX237.G6: DNA SELEX 2 aptamer clone (nucleic acid)", "DNA": "CTACCTACGATCTGACTAGCGTGCAGTGCCTATTCCAGGCCGTGCGGTGCCTCCGTCACGCTTACTCTCATGTAGTTCC", "modifications": "DNA, backbone and methylation of C not given here", "notes": "DNA SELEX 2 aptamer clone"}},
  "key": {"[1]": {"experiment": "cutaneous bleeding time (CBT) in cynomolgus macaques", "type": "in vivo", "conditions": "in words", "method": "Following IV administration, blood was collected percutaneously at various time points post-dose for PK and PD analysis. PD effect of ARC1779 on platelet function was determined by PFA-100 assays and effect of ARC1779 on bleeding was measured by CBT time. In addition, plasma samples were analyzed by HPLC for quantitation of ARC1779 levels. PK parameter estimates were determined by 2-compartment analysis.\nC. macaques were dosed at 0.5 mg/kg IV bolus with ARC1779 (SEQ ID NO 320). PFA-100 closure time, BIPA and cutaneous bleeding time (“CBT”) were all measured as a function of time throughout the studies. BIPA and PFA-100 closure times were measured as described in previously in Example 3. Cutaneous bleeding times were measured using standard protocols described as follows.\nA blood pressure cuff was applied to the biceps region of the forearm to be tested and inflated to maintain a constant pressure of 40 mmHg. Using a Surgicutt® Automated Incision Device (ITC, Edison, N.J.), a longitudinal incision was made over the lateral aspect of the volar surface of the forearm distal to the antecubital crease. A stopwatch was started at the time of incision. […] Bleeding time is determined to within 30 seconds of the time when blood is no longer wicked onto the paper. […]"}, "[2]": {"test_system": "vWF dependent platelet plug formation, cynomolgus whole blood", "experiment": "PFA-100 assay, cynomolgus macaque whole blood", "type": "cell-based, cynomolgus macaques", "conditions": "minimum concentration that extends closing time to 300 seconds", "source_text": "Another assay of this Example, using the PFA-100 instrument, is an agonist independent but vWF dependent assay that uses the PFA-100 instrument (Harrison et al., Clin. Lab. Haem., v24, p 225-32 (2002)). The PFA-100 simulates the formation of a hemostatic plug under conditions of high shear force in vivo by recording the time required for a platelets to aggregate and block the flow of citrated whole blood through a microscopic aperture in a membrane coated with collagen and either epinephrine or ADP. This activity is von Willebrand factor dependent as high MW vWF multimers bind to immobilized collagen on the membrane and then bind to and activate platelets because of the shear force induced by drawing the blood through the microscopic aperture.\nFresh whole blood was collected from healthy non-steroidal anti-inflammatory drug (NSAID) free cynomolgus macaques. […]\nIn order to assay the titration of aptamer in whole blood, the aptamer was added to no-additive vacutainer tubes and diluted to the desired concentrations (ex: 0 nM, 1 nM to 1000 nM) using physiological saline such that the final volume was […]. When the PFA-100 was ready to run the next set of samples, 1940 μl of whole blood was added to the tube containing a concentration of aptamer. […] The time of occlusion of the aperture was measured by the PFA-100, with a maximal time of 300 seconds. […]"}, "[3]": {"test_system": "ADP induced platelet aggregation", "experiment": "ADP Induced Platelet Aggregation (AIPA) in human PRP", "type": "cell-based", "conditions": "in words, 10 micromolar ADP", "quoted_text": "Another assay of this Example used ADP to induce platelet aggregation.\nAIPA was performed with human PRP exactly as was done for BIPA described above in Example 3C with the exception that instead of adding botrocetin, 10 micromolar ADP (Chronolog, Haverton, Pa.) was added to induce platelet aggregation."}, "[4]": {"test_system": "rabbit vWF A1 domain (SEQ ID NO 6)", "sequence (as listed by the source)": "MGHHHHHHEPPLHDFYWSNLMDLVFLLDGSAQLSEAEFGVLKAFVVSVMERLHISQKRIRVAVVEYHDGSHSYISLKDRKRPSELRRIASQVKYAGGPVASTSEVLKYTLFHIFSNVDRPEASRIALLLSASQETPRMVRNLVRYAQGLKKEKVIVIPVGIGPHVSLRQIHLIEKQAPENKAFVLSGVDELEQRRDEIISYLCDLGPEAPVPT", "experiment": "dot blot KD determination, rabbit vWF A1 domain", "type": "binding", "conditions": "dot blot, 12 point protein titration, 1xDPBS plus 0.1 mg/mL BSA, room temperature, 30 minutes", "quoted_text": "A 12 point protein titration was used in the dot blot assay (300 nM, 100 nM, 30 nM, 10 nM, 3 nM, 1 nM, 300 pM, 100 pM, 30 pM, 10 pM, 3 pM, 0 pM) in 1×DPBS plus 0.1 mg/mL BSA at room temperature for 30 minutes."}, "[5]": {"molecular_target": "vWF (Homo sapiens, UniProt P04275, D1472H/Q852R/T1381A)", "sequence (P04275 764-2813 Q852R/T1381A/D1472H)": "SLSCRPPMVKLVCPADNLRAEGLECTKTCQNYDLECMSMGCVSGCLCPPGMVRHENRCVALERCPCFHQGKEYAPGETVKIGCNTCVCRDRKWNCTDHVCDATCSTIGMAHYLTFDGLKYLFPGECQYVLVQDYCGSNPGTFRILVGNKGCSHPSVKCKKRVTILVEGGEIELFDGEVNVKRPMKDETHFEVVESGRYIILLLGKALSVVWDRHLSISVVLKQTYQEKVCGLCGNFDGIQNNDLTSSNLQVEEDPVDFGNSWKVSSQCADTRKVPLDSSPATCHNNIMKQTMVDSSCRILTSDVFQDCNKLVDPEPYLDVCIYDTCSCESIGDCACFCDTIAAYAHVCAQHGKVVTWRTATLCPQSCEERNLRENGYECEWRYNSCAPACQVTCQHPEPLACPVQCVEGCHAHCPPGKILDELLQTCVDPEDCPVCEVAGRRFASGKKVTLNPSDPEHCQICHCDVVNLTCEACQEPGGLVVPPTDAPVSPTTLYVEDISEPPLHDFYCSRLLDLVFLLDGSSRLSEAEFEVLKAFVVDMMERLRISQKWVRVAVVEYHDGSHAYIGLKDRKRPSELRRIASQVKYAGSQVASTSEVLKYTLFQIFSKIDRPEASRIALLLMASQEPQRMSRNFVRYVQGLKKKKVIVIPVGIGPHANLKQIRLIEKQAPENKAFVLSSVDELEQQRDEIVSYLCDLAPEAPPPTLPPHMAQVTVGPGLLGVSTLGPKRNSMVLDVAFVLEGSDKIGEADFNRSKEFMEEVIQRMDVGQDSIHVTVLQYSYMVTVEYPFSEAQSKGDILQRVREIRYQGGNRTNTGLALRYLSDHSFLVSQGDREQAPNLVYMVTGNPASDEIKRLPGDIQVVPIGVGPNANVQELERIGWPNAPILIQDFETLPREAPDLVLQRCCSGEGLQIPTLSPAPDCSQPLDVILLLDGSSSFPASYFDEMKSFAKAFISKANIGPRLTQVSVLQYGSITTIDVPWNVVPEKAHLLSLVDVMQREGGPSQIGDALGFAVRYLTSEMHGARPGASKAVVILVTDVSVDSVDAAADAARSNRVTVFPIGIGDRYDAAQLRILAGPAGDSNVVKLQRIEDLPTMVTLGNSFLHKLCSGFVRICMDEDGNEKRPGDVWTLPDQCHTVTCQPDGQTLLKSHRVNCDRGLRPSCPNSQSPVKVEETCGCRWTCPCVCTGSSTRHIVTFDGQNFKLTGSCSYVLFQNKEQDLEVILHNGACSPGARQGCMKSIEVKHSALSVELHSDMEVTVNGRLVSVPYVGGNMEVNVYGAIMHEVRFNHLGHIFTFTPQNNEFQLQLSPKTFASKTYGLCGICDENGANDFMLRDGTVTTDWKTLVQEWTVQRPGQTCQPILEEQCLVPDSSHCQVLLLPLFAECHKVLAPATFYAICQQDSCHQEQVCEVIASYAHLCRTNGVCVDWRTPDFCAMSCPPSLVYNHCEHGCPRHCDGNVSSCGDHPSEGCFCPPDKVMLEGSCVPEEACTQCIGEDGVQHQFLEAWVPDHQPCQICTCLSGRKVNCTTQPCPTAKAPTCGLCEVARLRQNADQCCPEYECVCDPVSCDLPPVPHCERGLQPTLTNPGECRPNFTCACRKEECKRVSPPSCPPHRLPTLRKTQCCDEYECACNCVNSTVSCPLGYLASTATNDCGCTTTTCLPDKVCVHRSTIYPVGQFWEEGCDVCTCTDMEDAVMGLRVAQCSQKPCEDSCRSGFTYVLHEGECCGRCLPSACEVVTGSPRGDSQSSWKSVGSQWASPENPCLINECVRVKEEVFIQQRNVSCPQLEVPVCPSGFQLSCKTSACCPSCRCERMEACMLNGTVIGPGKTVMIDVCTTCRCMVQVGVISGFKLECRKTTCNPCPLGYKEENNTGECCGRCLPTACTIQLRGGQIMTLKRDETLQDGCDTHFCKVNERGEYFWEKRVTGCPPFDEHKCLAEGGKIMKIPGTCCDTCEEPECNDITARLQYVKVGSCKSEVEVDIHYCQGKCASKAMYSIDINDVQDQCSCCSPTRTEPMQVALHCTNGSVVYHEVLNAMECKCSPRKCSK", "experiment": "cellular / biological vWF dependent assays of Example 3, not specified further", "type": "cell-based", "conditions": "in words; FACS, BIPA (and PFA-100) assays of Example 3", "source_text": "The effectiveness of various aptamers in blocking vWF function in several biological assays is described in this Example.\nIn one assay botrocetin is used. Botrocetin, a protein isolated from snake venom, is known to induce von Willebrand Factor binding to the gpib receptor on live and fixed platelets. This reaction causes agglutination of suspensions of fixed platelets via vWF multimerization. In preparations of platelet rich plasma (hereinafter “PRP”), vWF/botrocetin induction of agglutination is followed by a second phase of platelet aggregation caused by metabolic activation of the platelets. These two reactions: vWF binding to fixed platelets and vWF mediated platelet aggregation, can be used to measure the activity of aptamers of the invention."}},
  "note": "“Also recorded” adds a separate entry of the source. [invdT] = inverted (3'-3') thymidine; d = 2'-deoxy (DNA); m = 2'-O-methyl",
  "data": [
    {"molecule": "PEG20K-NH2-mGmCmGmUdGdCdAmGmUmGmCmCmUmUmCmGmGmCdCmG-s-TmGdCdGdGTmGmCdCmUdCdCmGmUdCmAmCmGmC-3T [ARC1779]", "values": [
      {"measurement": "effect on cutaneous bleeding time", "setting": "[1]; 0.5 mg/kg single IV bolus, 0.5 mg/kg", "value": "minimal effect; also recorded: very little increase"},
      {"measurement": "cutaneous bleeding time in the electrolytic thrombosis model", "setting": "[1]; FIG. 34, various doses and time points", "value": "at some doses and/or time points in this animal model prolonged CBT was observed, while at other doses and time points CBT was not prolonged"}
    ]},
    {"molecule": "mGmCmGmUdGdCdAmGmUmGmCmCmUmUmCmGmGmCdCmG-s-TmGdCdGdGTmGmCdCmUdCdCmGmUdCmAmCmGmC-3T (GCGUGCAGUGCCUUCGGCCGTGCGGTGCCUCCGUCACGC; sugars from the 5' end mmmmdddmmmmmmmmmmmdmdmddddmmdmddmmdmmmm, [invdT] at 3' end, backbone not given here) [ARC1368]", "values": [
      {"measurement": "~IC95 PFA-100 (nM) with citrated C. macaque whole blood", "setting": "[2]", "value": "~100", "unit": "nM"},
      {"measurement": "ability to block AIPA", "setting": "[3]", "value": "no ability to block AIPA"}
    ]},
    {"molecule": "B1", "values": [
      {"measurement": "Kd", "setting": "[4]", "value": 47, "unit": "nM"},
      {"measurement": "activity in the cellular / biological assays", "setting": "[5]", "value": "slightly more potent"}
    ]}
  ]
}
